Columns and labels:
[1] = tested on: Z-138 cells; test: SDMA inhibition assay; assay type: cell-based; conditions: Homo sapiens, 48 h, activity range 1.1 nM to 50 nM
Protocol: SDMA Inhibition Assay Protocol Z-138 cells (ATCC, CRL-3001™) were seeded at a density of 1 million cells/well in transparent, flat bottomed tissue culture grade 48-well plates. Cells were treated with various concentration of test compounds for a period of 48 h. Cell lysate was prepared using 1×CST Lysis buffer (Cell Signaling Technology, USA) and 500 ng/well/50 μL of lysate in pH 9.6 carbonate buffer was coated on 96-well Maxisorb plate and incubated overnight at 4° C. The plate was washed twice in 1×PBS containing 0.05% Tween 20 and blocked in 1% BSA for 1 h at ambient temperature. Further, the plate was incubated first with primary antibody (anti-SDMA antibody; CST #13222s) at ambient temperature for 2 h and then with HRP-conjugated secondary antibody at ambient temperature for 1 h with 2 intermittent washing steps in between.
For luminiscence based detection, HRP substrates (substrate A+substrate B in a 1:1 proportion) were added followed by luminiscence reading after 30 min in Synergy™ 2 reader (Biotek, USA).
For absorbance based detection, TMB substrate was added followed by addition of STOP solution (2N H2SO4) post colour development and absorbance ([…]) was measured in Synergy™ 2 reader (Biotek, USA). % inhibition of SDMA was calculated relative to the vehicle control samples containing media with 0.1% DMSO alone as per the formula below. (Avg. of Untreated Control−Avg. of Test)×100 Avg. of Untreated Control
(§1) The IC50 values of individual compounds were calculated with Non Linear Regression Analysis using Graph Pad Prism (Graph Pad software, Inc, USA).

[2] = molecular target: PRMT5:MEP50 (Homo sapiens, UniProt O14744); test: PRMT5 biochemical HTRF assay (Biochemical Assay Protocol 1 / 2); conditions: biotinylated H4R3 substrate, 1 μM SAM, protocol 1 or 2 not given, activity range 300 pM to 950 pM, read-out: IC50 (PRMT5 inhibition), activity range
Protocol: Biochemical Assay Protocol 1
(§2) Inhibitory effect of compounds on PRMT5 was assessed using HTRF detection technology in biochemical assay. Biotinylated H4R3 (residues 1-21) was used as a substrate. Compounds were pre-incubated with 15-25 ng PRMT5:MEP50 per well of a 384-well plate for 30 min at room temperature in the assay buffer containing 20 mM Bicine, pH 7.6, 25 mM NaCl, 2 mM DTT, 0.01% Chicken albumin and 0.01% Tween-20. Reaction was initiated by adding 1 μM of SAM and 50 nM biotinylated H4R3. Total assay volume was 15 μL. Reaction was continued for 120 min at room temperature. Then detection solution containing Streptavidin-Eu cryptate, anti-rabbit IgG-XL-665, Histone H4R3 Dimethyl Symmetric (H4R3me2s) Polyclonal Antibody, all prepared in HTRF detection buffer was added and further incubated for 30 min at room temperature. HTRF signal was recorded in PHERAStar microplate reader. Ratio of signal obtained at 665 nm and 620 nm was used to compute the percent inhibition of compound as follows % Inhibition=100−((Test Ratio−Negative control Ratio)/(Positive control Ratio−Negative control Ratio)*100) where Positive control=PRMT5+SAM+H4R3 Negative control=PRMT5+H4R3 Biochemical Assay Protocol 2
as §2, with “2.5” for “15-25”, “4 h” for “120 min”, “control=PRMT5+H4R3” for “control=PRMT5+H4R3 Biochemical Assay Protocol 2”

[3] = tested on: Z-138 cells; test: Anti-cancer assay (Z-138), cell viability CellTiterGlo; assay type: cell-based; conditions: Homo sapiens, 96 h, activity range, lower bound in pM, upper bound in nM
Protocol: (§3) Anticancer Activity Assay
(§4) Z-138 cells were seeded at a density of 2000-3000 cells per well in culture media (IMDM+10% FBS). PANC-1 (ATCC, CRL-1469™) and MIA PaCa-2 (ATCC, CRL-1420™) cells were seeded at a density of 200-300 cells per well in culture media (DMEM+10% FBS). Cells were seeded in opaque, flat bottomed tissue culture grade 96-well plates and Z-138 cells (suspension) were seeded and treated on the same day with various concentrations of test compounds. PANC-1 and MIA PaCa-2 cells, being adherent, were kept for overnight settlement at standard cell culture conditions (37° C., 5% CO2). On the following day, cells were treated with various concentrations of test compounds. Cells were treated with test compounds for a period of 96 h, 7 days and 10 days, for Z-138 cells, PANC-1 cells and MIA PaCa-2 cells, respectively. Cell viability was assessed using CellTiterGlo™ (Promega, USA) as per manufacturer's instructions. Relative Light Units (RLU) were read in Synergy™ 2 reader (Biotek, USA). The assay measures cellular ATP as an indicator of cell viability. RLU is proportional to the number of viable cells in the respective well.
(§5) % inhibition of cell viability was calculated relative to the vehicle control samples containing media with 0.1% DMSO alone as per the formula below. (Avg. of Untreated Control−Avg. of Test)×100 Avg. of Untreated Control
as §1
Anti-Cancer Assay (Z-138)

[4] = tested on: PANC-1 cells; test: Anti-cancer assay (Panc-1), cell viability CellTiterGlo; assay type: cell-based; conditions: Homo sapiens, PANC-1, 168 h, 7 days
Protocol: as §3, §4, §5, §1
Anti-Cancer Assay (Panc-1)

[5] = activity range, lower bound in pM, upper bound in nM

PRMT5:MEP50, sequence (O14744 whole entry): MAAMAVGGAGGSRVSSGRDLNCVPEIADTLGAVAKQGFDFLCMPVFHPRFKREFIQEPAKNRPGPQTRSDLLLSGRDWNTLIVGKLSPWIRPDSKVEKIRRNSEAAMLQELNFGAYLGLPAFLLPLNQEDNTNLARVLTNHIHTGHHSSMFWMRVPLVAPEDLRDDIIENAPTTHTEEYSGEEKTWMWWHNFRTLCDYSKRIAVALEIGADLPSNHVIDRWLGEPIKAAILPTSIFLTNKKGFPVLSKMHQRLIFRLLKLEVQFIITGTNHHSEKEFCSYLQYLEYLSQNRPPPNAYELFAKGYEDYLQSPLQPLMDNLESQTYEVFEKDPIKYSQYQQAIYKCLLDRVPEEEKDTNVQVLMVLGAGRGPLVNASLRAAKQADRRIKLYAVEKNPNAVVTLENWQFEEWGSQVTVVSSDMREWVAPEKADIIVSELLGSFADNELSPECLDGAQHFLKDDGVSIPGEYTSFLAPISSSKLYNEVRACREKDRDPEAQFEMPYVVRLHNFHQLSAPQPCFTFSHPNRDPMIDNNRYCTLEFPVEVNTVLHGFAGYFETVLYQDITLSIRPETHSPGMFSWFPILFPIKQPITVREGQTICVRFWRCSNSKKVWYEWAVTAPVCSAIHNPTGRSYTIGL
PRMT5:MEP50, sequence (Q9BQA1 whole entry partner): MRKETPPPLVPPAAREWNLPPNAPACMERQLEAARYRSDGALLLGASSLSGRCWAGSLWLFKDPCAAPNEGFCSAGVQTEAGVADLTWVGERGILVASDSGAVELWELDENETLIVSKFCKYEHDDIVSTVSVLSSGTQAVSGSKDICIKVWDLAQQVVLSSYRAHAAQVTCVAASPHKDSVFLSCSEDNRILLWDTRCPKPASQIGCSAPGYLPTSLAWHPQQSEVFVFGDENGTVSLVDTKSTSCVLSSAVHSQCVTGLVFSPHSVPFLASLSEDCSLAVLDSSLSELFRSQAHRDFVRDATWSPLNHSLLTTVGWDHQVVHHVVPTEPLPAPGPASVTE

IC50 [1]	IC50 [2]	IC50 [3]	IC50 ([4]; activity range 20 nM to 100 nM)	IC50 [4, 5]	Structure (SMILES)
1.1 to 50 nM	–	–	–	–	Cn1cc(-c2ncnc3c2ccn3[C@@H]2C=C(CCc3cc(F)c4cc(Cl)c(N)nc4c3)[C@@H](O)[C@H]2O)cn1 [Compound-32, (1S,2R,5R)-3-(2-(2-amino-3-chloro-5-fluoroquinolin-7-yl)ethyl)-5-(4-(1-methyl-1H-pyrazol-4-yl)-7H-pyrrolo[2,3-d]pyrimidin-7-yl)cyclopent-3-ene-1,2-diol]
–	0.3 to 0.95 nM	101 to 1000 pM	–	–	Nc1nc2c(F)c(CCC3=C[C@@H](n4ccc5c(N)ncnc54)[C@H](O)[C@@H]3O)ccc2cc1Cl [Compound-26, (1S,2R,5R)-3-(2-(2-amino-3-chloro-8-fluoroquinolin-7-yl)ethyl)-5-(4-amino-7H-pyrrolo[2,3-d]pyrimidin-7-yl)cyclopent-3-ene-1,2-diol]
1.1 to 50 nM	–	–	20000 to 100000 pM	–	CC(Cc1cc(F)c2cc(Cl)c(N)nc2c1)C1=C[C@@H](n2ccc3c(N)ncnc32)[C@H](O)[C@@H]1O (single isomer, unassigned) [Compound-33a]
–	–	101 to 1000 pM	–	–	CC(Oc1cc(F)c2cc(Cl)c(N)nc2c1)C1=C[C@@H](n2ccc3c(N)ncnc32)[C@H](O)[C@@H]1O (stereo partly drawn) [Compound-20b, (1S,2R,5R)-3-(1-((2-amino-3-chloro-5-fluoroquinolin-7-yl)oxy)ethyl)-5-(4-amino-7H-pyrrolo[2,3-d]pyrimidin-7-yl)cyclopent-3-ene-1,2-diol]
1.1 to 50 nM	0.3 to 0.95 nM	–	–	–	Cc1ncnc2c1ccn2[C@@H]1C=C(C(C)Cc2cc(F)c3cc(Cl)c(N)nc3c2)[C@@H](O)[C@H]1O (single isomer, unassigned) [Compound-35b]
–	–	101 to 1000 pM	–	300 to 20000 pM	CC(Cc1ccc2cc(Br)c(N)nc2c1)C1=C[C@@H](n2ccc3c(N)ncnc32)[C@H](O)[C@@H]1O (stereo partly drawn) [7b, (1S,2R,5R)-3-(1-(2-Amino-3-bromoquinolin-7-yl)propan-2-yl)-5-(4-amino-7H-pyrrolo[2,3-d]pyrimidin-7-yl)cyclopent-3-ene-1,2-diol]
1.1 to 50 nM	–	101 to 1000 pM	20000 to 100000 pM	–	Nc1nc2cc(CC[C@@]34C[C@@H]3[C@@H](n3ccc5c(N)ncnc53)[C@H](O)[C@@H]4O)c(F)cc2cc1Cl [Compound-62, (1R,2R,3S,4R,5S)-1-(2-(2-Amino-3-chloro-6-fluoroquinolin-7-yl)ethyl)-4-(4-amino-7H-pyrrolo[2,3-d]pyrimidin-7-yl) bicyclo[3.1.0]hexane-2,3-diol]
1.1 to 50 nM	–	101 to 1000 pM	–	300 to 20000 pM	Nc1nc2cc(CC[C@@]34C[C@@H]3[C@@H](n3ccc5c(N)ncnc53)[C@H](O)[C@@H]4O)c(F)cc2cc1Br [Compound-64, (1R,2R,3S,4R,5S)-1-(2-(2-amino-3-bromo-6-fluoroquinolin-7-yl)ethyl)-4-(4-amino-7H-pyrrolo[2,3-d]pyrimidin-7-yl)bicyclo[3.1.0]hexane-2,3-diol]
–	–	101 to 1000 pM	20000 to 100000 pM	–	Cc1ncnc2c1ccn2[C@@H]1C=C(CCc2cc(F)c3cc(Cl)c(N)nc3c2)[C@@](C)(O)[C@H]1O [Compound-39, (1S,2R,5R)-3-(2-(2-amino-3-chloro-5-fluoroquinolin-7-yl)ethyl)-2-methyl-5-(4-methyl-7H-pyrrolo[2,3-d]pyrimidin-7-yl)cyclopent-3-ene-1,2-diol]
1.1 to 50 nM	0.3 to 0.95 nM	–	–	300 to 20000 pM	Nc1nc2cc(CCC3=C[C@@H](n4ccc5c(N)ncnc54)[C@H](O)[C@@H]3O)c(F)cc2cc1Cl [Compound-25, (1S,2R,5R)-3-(2-(2-amino-3-chloro-6-fluoroquinolin-7-yl)ethyl)-5-(4-amino-7H-pyrrolo[2,3-d]pyrimidin-7-yl)cyclopent-3-ene-1,2-diol]
–	0.3 to 0.95 nM	–	–	300 to 20000 pM	Nc1nc2cc(CC[C@@]34C[C@@H]3[C@@H](n3ccc5c(N)ncnc53)[C@H](O)[C@@H]4O)ccc2cc1Br [Compound-73, (1R,2R,3S,4R,5S)-1-(2-(2-Amino-3-bromoquinolin-7-yl)ethyl)-4-(4-amino-7H-pyrrolo [2,3-d]pyrimidin-7-yl)bicyclo[3.1.0]hexane-2,3-diol]
–	0.3 to 0.95 nM	–	–	300 to 20000 pM	Nc1nc2cc(CCC3=C[C@@H](n4ccc5c(N)ncnc54)[C@H](O)[C@@H]3O)cc(F)c2cc1Br [Compound-43, (1S,2R,5R)-3-(2-(2-Amino-3-bromo-5-fluoroquinolin-7-yl)ethyl)-5-(4-amino-7H-pyrrolo[2,3-d]pyrimidin-7-yl)cyclopent-3-ene-1,2-diol]
1.1 to 50 nM	0.3 to 0.95 nM	101 to 1000 pM	–	–	CC(Cc1ccc2cc(Br)c(N)nc2c1)[C@@]12C[C@@H]1[C@@H](n1ccc3c(N)ncnc31)[C@H](O)[C@@H]2O (single isomer, unassigned) [Compound-76a]
–	0.3 to 0.95 nM	–	–	300 to 20000 pM	Nc1nc2cc(CCC3=C[C@@H](n4ccc5c(N)ncnc54)[C@H](O)[C@@H]3O)ccc2cc1Br [Compound-1, (1S,2R,5R)-3-(2-(2-Amino-3-bromoquinolin-7-yl)ethyl)-5-(4-amino-7H pyrrolo[2,3-d]pyrimidin-7-yl)cyclopent-3-ene-1,2-diol]

From patent US11459330B2, “Substituted bicyclic heterocyclic compounds as PRMT5 inhibitors” (LUPIN LIMITED, priority 2017, dated 2022)
